According to patent publication US20240197716A1, “TREATMENTS FOR CUSHING'S SYNDROME THAT DO NOT SIGNIFICANTLY AFFECT CARDIAC RHYTHMS” (Corcept Therapeutics Incorporated, priority 2022, published 2024):
“And” between values parts separate entries of the source, which are not always exact repeats. Identical values can stand only once.

Legend:
[1] = tested on: cardiac repolarization in healthy volunteers; assay: Thorough QT/QTc (TQT) study (NCT04795479), cardiodynamic Holter ECG; conditions: for ΔΔQTcF Estimate (msec) (90% CI), predicted at geometric mean Cmax: PK/QTc population
From the text: These studies included a randomized, partial double-blind, placebo- and positive-controlled, multiple-dose, 4-way crossover, thorough QT/QTc (TQT) study to investigate the effect of relacorilant on cardiac repolarization. These studies measured placebo-corrected change-from-baseline QTcF (ΔΔQTcF); change-from-baseline of QTcF, HR, and PR and QRS intervals (ΔQTcF, ΔHR, ΔPR, and ΔQRS); placebo-corrected change-from-baseline of HR, and PR and QRS intervals (ΔΔHR, ΔΔPR, and ΔΔQRS); categorical outliers for QTcF, HR, and PR and QRS intervals; the frequency of treatment-emergent changes of T-wave morphology and presence of U-waves; PK parameters of relacorilant and its metabolites (CORT125337, CORT125336, and CORT125295) and moxifloxacin; safety profiles, including AEs/SAEs, physical examination, clinical chemistry, hematology, urinalysis, ECG, and vital signs.
A phase 1, randomized, partial double-blind, crossover thorough QT study (NCT04795479) to assess the effect of multiple doses of relacorilant on cardiac repolarization in healthy volunteers. Participants were randomized to dosing sequences to receive relacorilant at therapeutic (400 mg QD, n=25) or supra-therapeutic (800 mg QD, n=28) doses, or placebo (n=29) for 5 days. Moxifloxacin (400 mg single dose, n=28) was used as a positive control.
Each subject received 4 treatments in a randomized sequence during the study period. Each dosing consisted of 8 capsules (except for moxifloxacin on Day 5), including: • Treatment T: Multiple oral doses of 400 mg relacorilant (4 capsules)+placebo for relacorilant (4 capsules) once daily for 5 days; • Treatment ST: Multiple oral doses of 800 mg relacorilant (8 capsules) once daily for 5 days; • Treatment P: Multiple oral doses of placebo for relacorilant (8 capsules) once daily for 5 days; • Treatment M: Multiple oral doses of placebo for relacorilant (8 capsules) once daily for 4 days and a final single oral dose of 400 mg moxifloxacin (one tablet) on Day 5.
In a portion of present study conducted in healthy subjects, a single dose of moxifloxacin (400 mg; Treatment M) on the last day of its respective treatment period was included as a positive control to determine the sensitivity of the study to detect small QTc changes. Relacorilant doses included both a therapeutic dose level (400 mg; Treatment T) and a supra-therapeutic dose level (800 mg; Treatment ST). The study was blinded to subjects, investigator, study staff, and sponsor with respect to relacorilant (Treatments T and ST) and placebo for relacorilant (Treatment P); it was open-labeled for moxifloxacin (Treatment M). Enrolled subjects were randomized to one of twelve (12) dosing sequences to receive 4 different treatments according to the assigned dosing sequence as shown below:
In each period, subjects were admitted to the clinical site in the morning of Day-1 and stayed in the site until the morning of Day 6. In the study periods when subjects were randomized to Treatment T, ST, or P, the applicable study product (400 mg or 800 mg relacorilant or placebo for relacorilant) were taken once daily in the morning for 5 consecutive days. During the dosing period of positive control (Treatment M), placebo for relacorilant were administered on Days 1 to 4 to align with the dosing schedule for the other three treatments and moxifloxacin were administered in an open-labeled manner as a single dose in the morning of Day 5. Therefore, the treatment on Days 1 to 4 were double-blinded; it was not known before the morning on Day 5 whether or not a subject was allocated to receive moxifloxacin. Each dosing period (from Periods 2 to 4) was separated from the previous period by a washout period of at least 10 days from Day 6 of the previous period to Day 1 (first dose) of the subsequent period to prevent a carryover effect. The final visit was on Day 6 of Period 4. A safety phone follow-up was scheduled at 7 days (±2 days) post the final visit/early termination (ET) visit.

[2] = tested on: Cushing's syndrome patients; assay: Separate study: relacorilant with another drug known to cause QT prolongation; format: in vivo, human; conditions: at least 12 patients also receiving fluoroquinoline, imidazole derivative, macrolide or protease inhibitor drug

## Cn1cc(S(=O)(=O)N2CCC3=Cc4c(cnn4-c4ccc(F)cc4)C[C@]3(C(=O)c3cc(C(F)(F)F)ccn3)C2)cn1 [relacorilant, ((R)-(1-(4-fluorophenyl)-6-((1-methyl-1H-pyrazol-4-yl)sulfonyl)-4,4a,5,6,7,8-hexahydro-1H-pyrazolo[3,4-g]isoquinolin-4a-yl)(4-(trifluoromethyl)pyridine-2-yl)methanone)]
[1]; 400 mg (Day 5)
  ΔΔQTcF Estimate (msec) (90% CI), predicted at geometric mean Cmax: -3.02 ms
[1]; 400 mg (Day 5), listed as Relacorilant
  ΔΔQTcF Estimate (msec) (90% CI), predicted at geometric mean Cmax: −3.02 (−4.16, −1.88)^1 msec
[1]; 400 mg and 800 mg QD
  effect on HR: did not have a clinically relevant effect on HR
[1]; 800 mg (Day 5)
  ΔΔQTcF Estimate (msec) (90% CI), predicted at geometric mean Cmax: -3.87 ms
[1]; 800 mg (Day 5), listed as Relacorilant
  ΔΔQTcF Estimate (msec) (90% CI), predicted at geometric mean Cmax: −3.87 (−5.56, −2.17)^1 msec
[1]; 2 hours post-dose on Day 5, 800 mg treatment
  LS mean placebo-corrected ΔHR, highest across post-dose time points: 2.4 bpm
[1]; 12 hours post-dose on Day 1, 800 mg treatment
  LS mean placebo-corrected ΔHR, lowest across post-dose time points: −3.2 bpm
[1]; Across all 3 studies (First-in-Human, TQT, and CS studies)
  tolerability: well tolerated
[1]; concentration-QTc modeling, plasma concentrations up to ˜4500 ng/mL
  effect on ΔΔQTcF exceeding the 10-msec threshold: excluded
[1]; linear mixed-effects model
  estimated slope (90% CI) of plasma concentration in the concentration-QTc relationship: −0.97(−1.68, −0.25) ×10^−3 msec/ng/ml and −0.97 ×10^−3 msec/ng/ml
[1]; therapeutic (400 mg) and supra-therapeutic (800 mg) doses
  effect on ECG parameters: no adverse effects on ECG parameters
[2]
  QT prolongation: no clinically significant QT prolongation
